From publication PMC5587910, “Methionine Sulfoxide Reductase A (MsrA) and Its Function in Ubiquitin-Like Protein Modification in Archaea” (mBio, 2017)

Columns and labels:
HvMsrA (MsrA-StrepII) = target: T1, HvMsrA (MsrA-StrepII) (Haloferax volcanii, UniProt D4GQQ9); assay: MSO-peptide reductase assay, HPLC of dabsyl-Met; type: biochemical
T1 construct: gene msrA1; C-terminal StrepII tag; expressed in E. coli Rosetta (DE3), Strep-Tactin and Superdex 75 purified; 21 kDa
T1 sequence (D4GQQ9 1-189): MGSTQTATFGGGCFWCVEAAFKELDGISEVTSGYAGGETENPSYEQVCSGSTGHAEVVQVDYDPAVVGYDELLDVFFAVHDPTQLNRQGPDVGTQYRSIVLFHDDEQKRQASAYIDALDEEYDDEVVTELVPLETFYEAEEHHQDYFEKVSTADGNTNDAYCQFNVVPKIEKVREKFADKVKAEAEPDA

HvMsrB (MsrB-StrepII) = target: T2, HvMsrB (MsrB-StrepII) (Haloferax volcanii, UniProt D4GVV0); assay: MSO-peptide reductase assay of cell lysate, HPLC of dabsyl-Met; type: biochemical; details: 400 µg cell extract, 200 µM dabsyl-MSO, 20 mM DTT, 25 mM Tris-Cl pH 7.5, 37°C
T2 construct: StrepII-tagged, expressed from plasmid in Hfx. volcanii deletion strains; cell lysate
T2 sequence (D4GVV0 entry or part of it): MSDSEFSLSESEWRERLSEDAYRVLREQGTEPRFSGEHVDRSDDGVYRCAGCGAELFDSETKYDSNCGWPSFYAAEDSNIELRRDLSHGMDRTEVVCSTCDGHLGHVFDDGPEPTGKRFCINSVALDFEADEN

CN(C)c1ccc(N=Nc2ccc(S(=O)(=O)N[C@@H](CC[S+](C)[O-])C(=O)O)cc2)cc1 (stereo partly drawn) [dabsyl-MSO]
MSO-peptide reductase assay, HPLC of dabsyl-Met (HvMsrA (MsrA-StrepII); 200 µM dabsyl-MSO, 20 mM DTT, 25 mM Tris-Cl pH 7.5, 37°C, 30 min): HvMsrA was found to catalyze the reduction of the MSO peptide
MSO-peptide reductase assay of cell lysate, HPLC of dabsyl-Met (HvMsrB (MsrB-StrepII)): HvMsrB was also found to catalyze MSO-peptide reductase activity

C[S+]([O-])CC[C@H](N)C(=O)O (stereo partly drawn) [MSO]
MSO-peptide reductase assay, HPLC of dabsyl-Met (HvMsrA (MsrA-StrepII); inhibitor, 0 to 20 mM MSO, dabsyl-MSO substrate, DTT, Tris-Cl pH 7.5, NaCl 0.2 to 2 M, 37°C, probably competing substrate): DMSO and MSO inhibited the MSO-peptide reductase activity of HvMsrA in a dose-dependent manner
